Measured values from patent US10757944B2, “Ozone treatment for elimination of pathogens” (priority 2016, dated 2020).

Tests used:
[1] = Cannabinoid and terpene content of cannabis flower before and after ozone exposure; format: physicochemical; settings: for % Change (decrease): 60 minute exposure to 200 ppm of ozone vs before; for % After Ozone Exposure (60 minutes): content of cannabis flower after 60 minute exposure to 200 ppm of ozone; for % Before Ozone Exposure (0 minutes): content of cannabis flower before exposure
Experimental: Cannabinoid and terpene content of cannabis flower was measured before exposure to 200 ppm of ozone in an embodiment of a disclosed pathogen reduction device and after a 60 minute exposure. The results are disclosed in Table 7 by the different cannabinoids and terpenes measured.

[2] = Pesticide residue on hemp flower after ozone treatment (AOAC official method 2007.01); format: physicochemical; settings: for Sample 1: residue on pesticide treated hemp exposed to ozone / Sample 2: residue on pesticide treated hemp exposed to ozone / Sample 3: residue on pesticide treated hemp exposed to ozone: 200 ppm ozone for 20 minutes; for average reduction of pesticide across the three samples tested: hemp, 20 minutes at 200 ppm ozone; for Control: residue on pesticide treated hemp not exposed to ozone: no ozone exposure
Experimental: The ability of ozone to reduce pesticide residue using an embodiment of a disclosed pathogen reduction device was evaluated. In this series of experiments, Myclobutanil and Bifenazate were purchased in liquid formulations (Myclobutanil at 19.7% from Dow AgroSciences as Eagle® 20EW and Bifenazate at 22.6% from Chemtura Corporation as Floramite® SC). The pesticides were sprayed on homogenized hemp flower and air dried. Dried hemp flower with pesticide was then exposed to treatment with 200 ppm of ozone for 20 minutes. Non pesticide treated hemp, pesticide treated hemp, and pesticide treated hemp that was exposed to ozone were analyzed by spectrometry using AOAC official method 2007.01. The results are disclosed below in Table 3 were Matrix Blank is non pesticide treated hemp (negative control), Control is pesticide treated hemp that was not exposed to ozone, and Sample 1, Sample 2, and Sample 3 are three samples of pesticide treated hemp that was exposed to ozone at 200 ppm for 20 minutes.

CCCCCc1cc(O)c2c(c1)OC(C)(C)[C@@H]1CCC(C)=C[C@@H]21 [THC]
% Change (decrease) [1]: 9.2%
% After Ozone Exposure (60 minutes) [1]: 0.680%
% Before Ozone Exposure (0 minutes) [1]: 0.749%

CCCCCc1cc(O)c(C/C=C(\C)CCC=C(C)C)c(O)c1C(=O)O [CBGA]
% Change (decrease) [1]: 13.4%
% After Ozone Exposure (60 minutes) [1]: 0.552%
% Before Ozone Exposure (0 minutes) [1]: 0.638%

CCCCCc1cc2c(c(O)c1C(=O)O)[C@@H]1C=C(C)CC[C@H]1C(C)(C)O2 [THCA]
% Change (decrease) [1]: 7.1%
% After Ozone Exposure (60 minutes) [1]: 15.7%
% Before Ozone Exposure (0 minutes) [1]: 16.9%

CCCc1cc2c(c(O)c1C(=O)O)[C@@H]1C=C(C)CC[C@H]1C(C)(C)O2 [THCVA]
% Change (decrease) [1]: 1.2%
% After Ozone Exposure (60 minutes) [1]: 0.076%
% Before Ozone Exposure (0 minutes) [1]: 0.077%

C=C(C)[C@@H]1CCC(C)=C[C@H]1c1c(O)cc(CCCCC)c(C(=O)O)c1O [CBDA]
% Change (decrease) [1]: 5.4%
% After Ozone Exposure (60 minutes) [1]: 0.035%
% Before Ozone Exposure (0 minutes) [1]: 0.037%

CCCCC(C#N)(Cn1cncn1)c1ccc(Cl)cc1 (stereo not shown) [Myclobutanil]
Sample 1: residue on pesticide treated hemp exposed to ozone [2]: 0.39 mg/kg
Sample 2: residue on pesticide treated hemp exposed to ozone [2]: 0.28 mg/kg
Sample 3: residue on pesticide treated hemp exposed to ozone [2]: 0.28 mg/kg
average reduction of pesticide across the three samples tested [2]: 0.18 ppm
Control: residue on pesticide treated hemp not exposed to ozone [2]: 0.5 mg/kg

CCCCCc1cc2c(c(O)c1C(=O)O)C=CC(C)(CCC=C(C)C)O2 (stereo not shown) [CBCA]
% Change (decrease) [1]: 0.28%
% After Ozone Exposure (60 minutes) [1]: 0.102%
% Before Ozone Exposure (0 minutes) [1]: 0.105%

CCCCCc1cc2c(c(O)c1C(=O)O)-c1cc(C)ccc1C(C)(C)O2 [CBNA]
% Change (decrease) [1]: 0.04%
% After Ozone Exposure (60 minutes) [1]: 0.0458%
% Before Ozone Exposure (0 minutes) [1]: 0.046%

COc1ccc(-c2ccccc2)cc1NNC(=O)OC(C)C [Bifenazate]
Sample 1: residue on pesticide treated hemp exposed to ozone [2]: 0.28 mg/kg
Sample 2: residue on pesticide treated hemp exposed to ozone [2]: 0.21 mg/kg
Sample 3: residue on pesticide treated hemp exposed to ozone [2]: 0.22 mg/kg
average reduction of pesticide across the three samples tested [2]: 0.1 ppm
Control: residue on pesticide treated hemp not exposed to ozone [2]: 0.34 mg/kg
